# Assay results taken from patent US10149879B2 (priority 2014, dated 2018).
# What was measured:
# L6 cells = experiment: Anti-oxidant activity in L6 cells challenged with H2O2; type: cell-based; design: Anti-oxidant activity, cells challenged with H2O2: unit not given here; details: for Anti-oxidant activity, cells challenged with H2O2: L6; for protection against H2O2 induced cellular oxidative damage: L6 cells
# From the text: Anti-Oxidant Activity in L6 Cells Challenged with H2O2 Berberin and Palmatine
# Anti-Oxidant Activity in L6 Cells Challenged with H2O2—Berberin and Quercetin
# 3T3-L1 cells [1] = experiment: Anti-oxidant activity in 3T3-L1 cells challenged with H2O2; type: cell-based; design: Anti-oxidant activity, cells challenged with H2O2: scale not given here; details: for Anti-oxidant activity, cells challenged with H2O2: 3T3-L1; for protection against H2O2 induced cellular oxidative damage: 3T3-L1 cells
# From the text: Anti-Oxidant Activity in 3T3-L1 Cells Challenged with H2O2 Berberin and Palmatine
# Anti-Oxidant Activity in 3T3-L1 Cells Challenged with H2O2 Berberin and Quercetin
# βTC6 insulinoma cell [2] = experiment: Anti-oxidant activity in βTC6 insulinoma cell challenged with H2O2; type: cell-based; design: Anti-oxidant activity, cells challenged with H2O2: unit not given here; details: for Anti-oxidant activity, cells challenged with H2O2: βTC6
# From the text: Anti-Oxidant Activity in βTC6 Insulinoma Cell Challenged with H2O2 Berberin and Quercetin—
# Anti-Oxidant Activity in βTC6 Insulinoma Cell Challenged with H2O2 Berberin and Palmatine—
# βTC6 insulinoma cell [3] = experiment: Cell viability assay in βTC6 insulinoma cell line; type: cell-based; details: βTC6, control 100.00
# From the text: Cell Viability Assay in βTC6 Insulinoma Cell Lime Following—
# L6-myotubes = experiment: Anti-diabetic activity (glucose consumption) in L6-myotubes; type: cell-based; design: Anti-diabetic activity (glucose consumption): unit not given here; details: for Anti-diabetic activity (glucose consumption): L6-myotubes, control 1.00
# 3T3-L1 cells [4] = experiment: Cell viability assay in 3T3-L1 cells; details: for Cell viability: 3T3-L1, control 100.00
# [5] = comparison with positive standard
molecule,measurement,setting,value
COc1cc2c(cc1OC)-c1cc3ccc(OC)c(OC)c3c[n+]1CC2 [Palmatine],"Anti-oxidant activity, cells challenged with H2O2","L6 cells; Co-incubated, 10 pM, control 60.10",56.13 ± 6.40
same,"Anti-oxidant activity, cells challenged with H2O2","L6 cells; Co-incubated, 100 pM, control 60.10",60.50 ± 5.50
same,"Anti-oxidant activity, cells challenged with H2O2","L6 cells; Co-incubated, 1 nM, control 60.10",63.91 ± 5.04
same,"Anti-oxidant activity, cells challenged with H2O2","L6 cells; Co-incubated, 10 nM, control 60.10",67.53 ± 8.12
same,"Anti-oxidant activity, cells challenged with H2O2","L6 cells; Co-incubated, 100 nM, control 60.10",71.70 ± 6.16
same,"Anti-oxidant activity, cells challenged with H2O2","L6 cells; Pre-incubated, 10 pM, control 60.10",58.70 ± 4.70
same,"Anti-oxidant activity, cells challenged with H2O2","L6 cells; Pre-incubated, 100 pM, control 60.10",63.30 ± 3.16
same,"Anti-oxidant activity, cells challenged with H2O2","L6 cells; Pre-incubated, 1 nM, control 60.10",66.12 ± 5.85
same,"Anti-oxidant activity, cells challenged with H2O2","L6 cells; Pre-incubated, 10 nM, control 60.10",66.70 ± 3.12
same,"Anti-oxidant activity, cells challenged with H2O2","L6 cells; Pre-incubated, 100 nM, control 60.10",70.00 ± 5.95
same,protection against H2O2 induced cellular oxidative damage,L6 cells; pM-nM doses,mild protection
same,"Anti-oxidant activity, cells challenged with H2O2","3T3-L1 cells [1]; Co-incubated, 10 pM, control 50.00",54.85 ± 2.20
same,"Anti-oxidant activity, cells challenged with H2O2","3T3-L1 cells [1]; Co-incubated, 100 pM, control 50.00",57.18 ± 1.20
same,"Anti-oxidant activity, cells challenged with H2O2","3T3-L1 cells [1]; Co-incubated, 1 nM, control 50.00",59.87 ± 2.70
same,"Anti-oxidant activity, cells challenged with H2O2","3T3-L1 cells [1]; Co-incubated, 10 nM, control 50.00",63.00 ± 1.10
same,"Anti-oxidant activity, cells challenged with H2O2","3T3-L1 cells [1]; Co-incubated, 100 nM, control 50.00",65.75 ± 1.40
same,"Anti-oxidant activity, cells challenged with H2O2","3T3-L1 cells [1]; Pre-incubated, 10 pM, control 50.00",53.18 ± 3.25
same,"Anti-oxidant activity, cells challenged with H2O2","3T3-L1 cells [1]; Pre-incubated, 100 pM, control 50.00",55.13 ± 1.50
same,"Anti-oxidant activity, cells challenged with H2O2","3T3-L1 cells [1]; Pre-incubated, 1 nM, control 50.00",57.00 ± 1.25
same,"Anti-oxidant activity, cells challenged with H2O2","3T3-L1 cells [1]; Pre-incubated, 10 nM, control 50.00",61.40 ± 0.25
same,"Anti-oxidant activity, cells challenged with H2O2","3T3-L1 cells [1]; Pre-incubated, 100 nM, control 50.00",67.25 ± 2.25
same,protection against H2O2 induced cellular oxidative damage,3T3-L1 cells [1]; pM-nM doses,mild protection
same,"Anti-oxidant activity, cells challenged with H2O2","βTC6 insulinoma cell [2]; Co-incubated, 1 pM, control 55.54",56.95 ± 3.60
same,"Anti-oxidant activity, cells challenged with H2O2","βTC6 insulinoma cell [2]; Co-incubated, 10 pM, control 55.54",57.04 ± 2.00
same,"Anti-oxidant activity, cells challenged with H2O2","βTC6 insulinoma cell [2]; Co-incubated, 0.1 nM, control 55.54",60.10 ± 1.41
same,"Anti-oxidant activity, cells challenged with H2O2","βTC6 insulinoma cell [2]; Co-incubated, 1 nM, control 55.54",61.75 ± 2.16
same,"Anti-oxidant activity, cells challenged with H2O2","βTC6 insulinoma cell [2]; Co-incubated, 10 nM, control 55.54",65.83 ± 0.81
same,"Anti-oxidant activity, cells challenged with H2O2","βTC6 insulinoma cell [2]; Pre-incubated, 1 pM, control 55.54",55.32 ± 1.48
same,"Anti-oxidant activity, cells challenged with H2O2","βTC6 insulinoma cell [2]; Pre-incubated, 10 pM, control 55.54",61.67 ± 2.10
same,"Anti-oxidant activity, cells challenged with H2O2","βTC6 insulinoma cell [2]; Pre-incubated, 0.1 nM, control 55.54",65.18 ± 1.95
same,"Anti-oxidant activity, cells challenged with H2O2","βTC6 insulinoma cell [2]; Pre-incubated, 1 nM, control 55.54",67.05 ± 2.40
same,"Anti-oxidant activity, cells challenged with H2O2","βTC6 insulinoma cell [2]; Pre-incubated, 10 nM, control 55.54",69.58 ± 2.55
same,anti-oxidant activity,βTC6 insulinoma cell [2]; βTC6 cells challenged with hydrogen peroxide,potent anti-oxidant activity
same,protection against H2O2 induced cellular oxidative damage,βTC6 insulinoma cell [2]; βTC6 insulinoma cells,Mild Protection
same,Cell viability,βTC6 insulinoma cell [3]; 1 pM,97.96 ± 1.10
same,Cell viability,βTC6 insulinoma cell [3]; 10 pM,97.50 ± 2.05
same,Cell viability,βTC6 insulinoma cell [3]; 100 pM,96.52 ± 2.70
same,Cell viability,βTC6 insulinoma cell [3]; 1 nM,94.80 ± 1.32
same,Cell viability,βTC6 insulinoma cell [3]; 10 nM,91.66 ± 1.60
same,Cell viability,βTC6 insulinoma cell [3]; 100 nM,84.45 ± 1.30
same,Cell viability,βTC6 insulinoma cell [3]; 1 μM,83.20 ± 1.90
same,Cell viability,βTC6 insulinoma cell [3]; 10 μM,81.98 ± 1.70
same,Anti-diabetic activity (glucose consumption),L6-myotubes; 1 nM,1.58 ± 0.10
same,Anti-diabetic activity (glucose consumption),L6-myotubes; 5 nM,1.78 ± 1.10
same,Anti-diabetic activity (glucose consumption),L6-myotubes; 25 nM,2.12 ± 0.09
same,Anti-diabetic activity (glucose consumption),L6-myotubes; 125 nM,2.35 ± 0.12
same,Anti-diabetic activity (glucose consumption),L6-myotubes; 625 nM,2.60 ± 0.10
same,glucose consumption,"L6-myotubes; differentiated L6-myotubes, dose dependent",accelerated glucose consumption
same,Cell viability,3T3-L1 cells [4]; 10 pM,100.00 ± 0.10
same,Cell viability,3T3-L1 cells [4]; 100 pM,99.99 ± 0.54
same,Cell viability,3T3-L1 cells [4]; 1 nM,99.45 ± 0.48
same,Cell viability,3T3-L1 cells [4]; 10 nM,98.30 ± 1.80
same,Cell viability,3T3-L1 cells [4]; 100 nM,98.90 ± 1.06
same,Cell viability,3T3-L1 cells [4]; 1 μM,95.15 ± 1.58
same,Cell viability,3T3-L1 cells [4]; 10 μM,89.26 ± 1.30
same,Cell viability,3T3-L1 cells [4]; 100 μM,83.10 ± 1.67
same,toxicity to the cell,"3T3-L1 cells [4]; 3T3-L1 cells, 1 μM",non-toxic
O=c1c(O)c(-c2ccc(O)c(O)c2)oc2cc(O)cc(O)c12 [Quercetin],"Anti-oxidant activity, cells challenged with H2O2","L6 cells; Co-incubated, 0.1 pM, control 61.10",57.50 ± 1.80
same,"Anti-oxidant activity, cells challenged with H2O2","L6 cells; Co-incubated, 1 pM, control 61.10",65.05 ± 2.80
same,"Anti-oxidant activity, cells challenged with H2O2","L6 cells; Co-incubated, 10 pM, control 61.10",70.36 ± 2.96
same,"Anti-oxidant activity, cells challenged with H2O2","L6 cells; Co-incubated, 100 pM, control 61.10",78.18 ± 2.99
same,"Anti-oxidant activity, cells challenged with H2O2","L6 cells; Co-incubated, 1 nM, control 61.10",88.64 ± 1.99
same,"Anti-oxidant activity, cells challenged with H2O2","L6 cells; Pre-incubated, 0.1 pM, control 61.10",63.60 ± 1.50
same,"Anti-oxidant activity, cells challenged with H2O2","L6 cells; Pre-incubated, 1 pM, control 61.10",68.02 ± 1.40
same,"Anti-oxidant activity, cells challenged with H2O2","L6 cells; Pre-incubated, 10 pM, control 61.10",75.12 ± 3.50
same,"Anti-oxidant activity, cells challenged with H2O2","L6 cells; Pre-incubated, 100 pM, control 61.10",87.90 ± 1.60
same,"Anti-oxidant activity, cells challenged with H2O2","L6 cells; Pre-incubated, 1 nM, control 61.10",95.15 ± 0.99
same,protection against H2O2 induced cellular oxidative damage,L6 cells; [5],potent protection
same,"Anti-oxidant activity, cells challenged with H2O2","3T3-L1 cells [1]; Co-incubated, 0.1 pM, control 50.00",57.30 ± 1.70
same,"Anti-oxidant activity, cells challenged with H2O2","3T3-L1 cells [1]; Co-incubated, 1 pM, control 50.00",65.00 ± 2.75
same,"Anti-oxidant activity, cells challenged with H2O2","3T3-L1 cells [1]; Co-incubated, 10 pM, control 50.00 ± 0.40",68.01 ± 2.75
same,"Anti-oxidant activity, cells challenged with H2O2","3T3-L1 cells [1]; Co-incubated, 100 pM, control 50.00 ± 0.40",78.70 ± 3.50
same,"Anti-oxidant activity, cells challenged with H2O2","3T3-L1 cells [1]; Co-incubated, 1 nM, control 50.00 ± 0.40",88.40 ± 1.90
same,"Anti-oxidant activity, cells challenged with H2O2","3T3-L1 cells [1]; Pre-incubated, 0.1 pM, control 50.00",61.00 ± 3.00
same,"Anti-oxidant activity, cells challenged with H2O2","3T3-L1 cells [1]; Pre-incubated, 1 pM, control 50.00",65.00 ± 1.70
same,"Anti-oxidant activity, cells challenged with H2O2","3T3-L1 cells [1]; Pre-incubated, 10 pM, control 50.00 ± 0.40",75.15 ± 2.99
same,"Anti-oxidant activity, cells challenged with H2O2","3T3-L1 cells [1]; Pre-incubated, 100 pM, control 50.00 ± 0.40",88.60 ± 2.60
same,"Anti-oxidant activity, cells challenged with H2O2","3T3-L1 cells [1]; Pre-incubated, 1 nM, control 50.00 ± 0.40",94.15 ± 1.70
same,protection against H2O2 induced cellular oxidative damage,3T3-L1 cells [1]; [5],superior even at lower concentration
same,"Anti-oxidant activity, cells challenged with H2O2","βTC6 insulinoma cell [2]; Co-incubated, 0.1 pM, control 55.64",60.31 ± 2.71
same,"Anti-oxidant activity, cells challenged with H2O2","βTC6 insulinoma cell [2]; Co-incubated, 1 pM, control 55.64",67.11 ± 2.71
same,"Anti-oxidant activity, cells challenged with H2O2","βTC6 insulinoma cell [2]; Co-incubated, 10 pM, control 55.64",70.10 ± 2.30
same,"Anti-oxidant activity, cells challenged with H2O2","βTC6 insulinoma cell [2]; Co-incubated, 100 pM, control 55.64",80.72 ± 1.20
same,"Anti-oxidant activity, cells challenged with H2O2","βTC6 insulinoma cell [2]; Co-incubated, 1 nM, control 55.64",90.44 ± 1.94
same,"Anti-oxidant activity, cells challenged with H2O2","βTC6 insulinoma cell [2]; Pre-incubated, 0.1 pM, control 55.64",64.00 ± 2.10
same,"Anti-oxidant activity, cells challenged with H2O2","βTC6 insulinoma cell [2]; Pre-incubated, 1 pM, control 55.64",68.38 ± 1.79
same,"Anti-oxidant activity, cells challenged with H2O2","βTC6 insulinoma cell [2]; Pre-incubated, 10 pM, control 55.64",77.51 ± 2.06
same,"Anti-oxidant activity, cells challenged with H2O2","βTC6 insulinoma cell [2]; Pre-incubated, 100 pM, control 55.64",81.63 ± 1.50
same,"Anti-oxidant activity, cells challenged with H2O2","βTC6 insulinoma cell [2]; Pre-incubated, 1 nM, control 55.64",87.59 ± 1.95
Insulin: reference line in the L6-myotubes glucose consumption table,Anti-diabetic activity (glucose consumption),"L6-myotubes; Insulin line, concentration not given",3.70 ± 0.15
